From patent US8969554B2, “6-acyl-1,2,4-triazine-3,5-dione derivative and herbicides” (Kumiai Chemical Industry Co., Ltd., priority 2010, dated 2015)

What was measured:
Format in all cases: in vivo
Set-up in all cases: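 index 0 to 10 in 10% steps of herbicidal effect with 10 meaning complete death and 0 below 10%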
A. retroflexus [1] = experiment: Herbicidal activity by field foliage treatment (Test example 3); details: 1000 g effective component per hectare, day 14 after the treatment
Experimental: (§1) [table] Test for Determining Herbicidal Activity by Field Foliage Treatment A 80 cm^2 wide plastic pot was filled with a field soil and seeds of each of Indian millet and A. retroflexus were sowed and then incubated for 2 weeks in a green house. The wettable powder produced with reference to the Formulation example 1 was diluted water, and applied from the air to entire body of the plant as foliage treatment by using a small sprayer in an amount of 1000 liters per hectare so that the effective component is 1000 g per hectare. After that, the plants were cultivated in a greenhouse, and on day 14 after the treatment, evaluation was made by the criteria described in Table 72 for determining the herbicidal effects.

Indian millet [2] = experiment: as above; details: 1000 g effective component per hectare, day 14 after the treatment
Experimental: as §1

Monochoria vaginalis = experiment: Herbicidal activity by paddy field soil treatment (Test Example 1); details: 1000 g of effective component per hectare, evaluated on day 21 after the treatment, criteria of Table 72
Experimental: (§2) Test for Determining Herbicidal Activity by Paddy Field Soil Treatment A 100 cm^2 wide plastic pot was filled with a paddy field soil and, after watering and shuffling, seeds of each of Echinochloa oryzicola, Monochoria vaginalis, and Scirpus juncoides Rocxb. were sowed and watered to a depth of 3 cm. On the next day, the wettable powder obtained in view of Formulation example 1 was diluted with water and applied on water surface. The application amount was 1000 g of effective component per hectare. After that, the plants were cultivated in a greenhouse, and on day 21 after the treatment, evaluation was made by the criteria of Table 72 for determining the herbicidal effects. [table]

Echinochloa oryzicola = experiment: as above; details: 1000 g of effective component per hectare, evaluated on day 21 after the treatment, criteria of Table 72
Experimental: as §2

Scirpus juncoides Rocxb. = experiment: as above; details: applied on water surface, 1000 g of effective component per hectare, day 21 after the treatment
Experimental: as §2

Echinochloa crus-galli [3] = experiment: Herbicidal activity by field foliage treatment (Test example 3); details: 1000 g effective component per hectare, day 14 after the treatment
Experimental: as §1, with “Test example 3” for “[table]”

Echinochloa crus-galli [4] = experiment: Herbicidal activity by field soil treatment (Test example 2); details: 1000 g effective component per hectare, day 21 after the treatment
Experimental: (§3) [table] Test for Determining Herbicidal Activity by Field Soil Treatment A 80 cm^2 wide plastic pot was filled with a field soil and seeds of each of Echinochloa crus-galli, foxtail, Indian millet, and A. retroflexus were sowed and then covered with soil. The wettable powder produced with reference to the Formulation example 1 was diluted water, and applied on the soil surface by using a small sprayer in an amount of 1000 liters per hectare so that the effective component is 1000 g per hectare. After that, the plants were cultivated in a greenhouse, and on day 21 after the treatment, evaluation was made by the criteria described in Table 72 for determining the herbicidal effects.

A. retroflexus [5] = experiment: as above; details: 1000 g effective component per hectare, day 21 after the treatment
Experimental: as §3

Indian millet [6] = experiment: as above; details: 1000 g effective component per hectare, day 21 after the treatment
Experimental: as §3

CN(c1ccc(F)cc1)n1c(=O)c(C(=O)C2=C(O)CCCC2=O)nn(C)c1=O [I-476]
herbicidal effect index, Amaranthus retroflexus (A. retroflexus [1]): 10
herbicidal effect index, Abutilon theophrasti (Indian millet [2]): 9
Herbicidal effects index number, Monochoria vaginalis (Monochoria vaginalis): 10
Herbicidal effects index number, Echinochloa oryzicola (Echinochloa oryzicola): 10
herbicidal effect index, S. juncoides Rocxb. (Scirpus juncoides Rocxb.): 10
herbicidal effect index, Echinochloa crus-galli (Echinochloa crus-galli [3]): 7
herbicidal effect index, Echinochloa crus-galli (Echinochloa crus-galli [4]): 7
herbicidal effect index, Amaranthus retroflexus (A. retroflexus [5]): 10
herbicidal effect index, Abutilon theophrasti (Indian millet [6]): 10

CCON=C(C)Cn1c(=O)c(C(=O)C2=C(O)CCCC2=O)nn(C)c1=O [I-478]
herbicidal effect index, Amaranthus retroflexus (A. retroflexus [1]): 10
herbicidal effect index, Abutilon theophrasti (Indian millet [2]): 9
Herbicidal effects index number, Monochoria vaginalis (Monochoria vaginalis): 10
Herbicidal effects index number, Echinochloa oryzicola (Echinochloa oryzicola): 10
herbicidal effect index, S. juncoides Rocxb. (Scirpus juncoides Rocxb.): 9
herbicidal effect index, Echinochloa crus-galli (Echinochloa crus-galli [3]): 8
herbicidal effect index, Echinochloa crus-galli (Echinochloa crus-galli [4]): 9
herbicidal effect index, Amaranthus retroflexus (A. retroflexus [5]): 10
herbicidal effect index, Abutilon theophrasti (Indian millet [6]): 10

Cn1nc(C(=O)C2=C(O)CCCC2=O)c(=O)n(-c2cccs2)c1=O [I-198]
herbicidal effect index, Amaranthus retroflexus (A. retroflexus [1]): 10
herbicidal effect index, Abutilon theophrasti (Indian millet [2]): 10
Herbicidal effects index number, Monochoria vaginalis (Monochoria vaginalis): 10
Herbicidal effects index number, Echinochloa oryzicola (Echinochloa oryzicola): 8
herbicidal effect index, S. juncoides Rocxb. (Scirpus juncoides Rocxb.): 10
herbicidal effect index, Echinochloa crus-galli (Echinochloa crus-galli [3]): 10
herbicidal effect index, Echinochloa crus-galli (Echinochloa crus-galli [4]): 7
herbicidal effect index, Amaranthus retroflexus (A. retroflexus [5]): 10
herbicidal effect index, Abutilon theophrasti (Indian millet [6]): 10

Cc1cc(F)cc(-n2c(=O)c(C(=O)C3=C(O)CCCC3=O)nn(C)c2=O)c1 [I-106]
herbicidal effect index, Amaranthus retroflexus (A. retroflexus [1]): 10
herbicidal effect index, Abutilon theophrasti (Indian millet [2]): 9
Herbicidal effects index number, Monochoria vaginalis (Monochoria vaginalis): 10
Herbicidal effects index number, Echinochloa oryzicola (Echinochloa oryzicola): 10
herbicidal effect index, S. juncoides Rocxb. (Scirpus juncoides Rocxb.): 10
herbicidal effect index, Echinochloa crus-galli (Echinochloa crus-galli [3]): 10
herbicidal effect index, Echinochloa crus-galli (Echinochloa crus-galli [4]): 10
herbicidal effect index, Amaranthus retroflexus (A. retroflexus [5]): 10
herbicidal effect index, Abutilon theophrasti (Indian millet [6]): 10

Cc1ccc(-n2c(=O)c(C(=O)C3=C(O)CCCC3=O)nn(C)c2=O)c(F)c1 [I-108]
herbicidal effect index, Amaranthus retroflexus (A. retroflexus [1]): 10
herbicidal effect index, Abutilon theophrasti (Indian millet [2]): 9
Herbicidal effects index number, Monochoria vaginalis (Monochoria vaginalis): 10
Herbicidal effects index number, Echinochloa oryzicola (Echinochloa oryzicola): 10
herbicidal effect index, S. juncoides Rocxb. (Scirpus juncoides Rocxb.): 10
herbicidal effect index, Amaranthus retroflexus (A. retroflexus [5]): 10
herbicidal effect index, Abutilon theophrasti (Indian millet [6]): 8

CCCCCCn1c(=O)c(C(=O)C2=C(O)CCCC2=O)nn(C)c1=O [I-9]
herbicidal effect index, Amaranthus retroflexus (A. retroflexus [1]): 10
herbicidal effect index, Abutilon theophrasti (Indian millet [2]): 10
Herbicidal effects index number, Monochoria vaginalis (Monochoria vaginalis): 8
Herbicidal effects index number, Echinochloa oryzicola (Echinochloa oryzicola): 8
herbicidal effect index, S. juncoides Rocxb. (Scirpus juncoides Rocxb.): 8
herbicidal effect index, Echinochloa crus-galli (Echinochloa crus-galli [3]): 10
herbicidal effect index, Echinochloa crus-galli (Echinochloa crus-galli [4]): 7
herbicidal effect index, Amaranthus retroflexus (A. retroflexus [5]): 10

COc1ccc(-n2c(=O)c(C(=O)C3=C(O)CCCC3=O)nn(C)c2=O)c(OC)c1 [I-96]
herbicidal effect index, Amaranthus retroflexus (A. retroflexus [1]): 10
herbicidal effect index, Abutilon theophrasti (Indian millet [2]): 9
Herbicidal effects index number, Monochoria vaginalis (Monochoria vaginalis): 10
Herbicidal effects index number, Echinochloa oryzicola (Echinochloa oryzicola): 8
herbicidal effect index, S. juncoides Rocxb. (Scirpus juncoides Rocxb.): 10
herbicidal effect index, Echinochloa crus-galli (Echinochloa crus-galli [3]): 7
herbicidal effect index, Amaranthus retroflexus (A. retroflexus [5]): 10
herbicidal effect index, Abutilon theophrasti (Indian millet [6]): 10

CC(C)Cn1c(=O)c(C(=O)C2=C(O)CCCC2=O)nn(-c2ccccn2)c1=O [I-307]
herbicidal effect index, Amaranthus retroflexus (A. retroflexus [1]): 9
herbicidal effect index, Abutilon theophrasti (Indian millet [2]): 10
Herbicidal effects index number, Monochoria vaginalis (Monochoria vaginalis): 9
Herbicidal effects index number, Echinochloa oryzicola (Echinochloa oryzicola): 8
herbicidal effect index, S. juncoides Rocxb. (Scirpus juncoides Rocxb.): 8
herbicidal effect index, Echinochloa crus-galli (Echinochloa crus-galli [4]): 7
herbicidal effect index, Amaranthus retroflexus (A. retroflexus [5]): 10
herbicidal effect index, Abutilon theophrasti (Indian millet [6]): 9

CCOc1ccc(-n2c(=O)c(C(=O)C3=C(O)CCCC3=O)nn(C)c2=O)cc1 [I-268]
herbicidal effect index, Amaranthus retroflexus (A. retroflexus [1]): 10
herbicidal effect index, Abutilon theophrasti (Indian millet [2]): 9
Herbicidal effects index number, Monochoria vaginalis (Monochoria vaginalis): 10
Herbicidal effects index number, Echinochloa oryzicola (Echinochloa oryzicola): 10
herbicidal effect index, S. juncoides Rocxb. (Scirpus juncoides Rocxb.): 10
herbicidal effect index, Echinochloa crus-galli (Echinochloa crus-galli [3]): 7
herbicidal effect index, Amaranthus retroflexus (A. retroflexus [5]): 10
herbicidal effect index, Abutilon theophrasti (Indian millet [6]): 8

CSc1c(Cl)cc(-n2c(=O)c(C(=O)C3=C(O)CCCC3=O)nn(C)c2=O)cc1Cl [I-300]
herbicidal effect index, Amaranthus retroflexus (A. retroflexus [1]): 10
herbicidal effect index, Abutilon theophrasti (Indian millet [2]): 8
Herbicidal effects index number, Monochoria vaginalis (Monochoria vaginalis): 10
Herbicidal effects index number, Echinochloa oryzicola (Echinochloa oryzicola): 10
herbicidal effect index, S. juncoides Rocxb. (Scirpus juncoides Rocxb.): 10
herbicidal effect index, Echinochloa crus-galli (Echinochloa crus-galli [3]): 9
herbicidal effect index, Amaranthus retroflexus (A. retroflexus [5]): 10
herbicidal effect index, Abutilon theophrasti (Indian millet [6]): 10

Cn1nc(C(=O)C2=C(O)CCCC2=O)c(=O)n(-c2ccc(F)cc2)c1=S [I-480]
herbicidal effect index, Amaranthus retroflexus (A. retroflexus [1]): 10
herbicidal effect index, Abutilon theophrasti (Indian millet [2]): 10
Herbicidal effects index number, Echinochloa oryzicola (Echinochloa oryzicola): 10
herbicidal effect index, S. juncoides Rocxb. (Scirpus juncoides Rocxb.): 10
herbicidal effect index, Echinochloa crus-galli (Echinochloa crus-galli [3]): 9
herbicidal effect index, Echinochloa crus-galli (Echinochloa crus-galli [4]): 8
herbicidal effect index, Amaranthus retroflexus (A. retroflexus [5]): 10
herbicidal effect index, Abutilon theophrasti (Indian millet [6]): 10

Cc1cnc(-n2c(=O)c(C(=O)C3=C(O)CCCC3=O)nn(C)c2=O)cn1 [I-292]
herbicidal effect index, Amaranthus retroflexus (A. retroflexus [1]): 10
herbicidal effect index, Abutilon theophrasti (Indian millet [2]): 10
Herbicidal effects index number, Monochoria vaginalis (Monochoria vaginalis): 10
Herbicidal effects index number, Echinochloa oryzicola (Echinochloa oryzicola): 10
herbicidal effect index, S. juncoides Rocxb. (Scirpus juncoides Rocxb.): 10
herbicidal effect index, Echinochloa crus-galli (Echinochloa crus-galli [3]): 8
herbicidal effect index, Echinochloa crus-galli (Echinochloa crus-galli [4]): 7
herbicidal effect index, Abutilon theophrasti (Indian millet [6]): 9

Cn1nc(C(=O)C2=C(O)CCCC2=O)c(=O)n(-c2ccc3c(c2)OCO3)c1=O [I-170]
herbicidal effect index, Amaranthus retroflexus (A. retroflexus [1]): 10
herbicidal effect index, Abutilon theophrasti (Indian millet [2]): 10
Herbicidal effects index number, Monochoria vaginalis (Monochoria vaginalis): 10
Herbicidal effects index number, Echinochloa oryzicola (Echinochloa oryzicola): 10
herbicidal effect index, S. juncoides Rocxb. (Scirpus juncoides Rocxb.): 10
herbicidal effect index, Echinochloa crus-galli (Echinochloa crus-galli [3]): 10
herbicidal effect index, Amaranthus retroflexus (A. retroflexus [5]): 10
herbicidal effect index, Abutilon theophrasti (Indian millet [6]): 10

Cc1ccc(-n2c(=O)c(C(=O)C3=C(O)CCCC3=O)nn(C)c2=O)cc1 [I-59]
herbicidal effect index, Amaranthus retroflexus (A. retroflexus [1]): 10
herbicidal effect index, Abutilon theophrasti (Indian millet [2]): 10
Herbicidal effects index number, Monochoria vaginalis (Monochoria vaginalis): 10
Herbicidal effects index number, Echinochloa oryzicola (Echinochloa oryzicola): 10
herbicidal effect index, S. juncoides Rocxb. (Scirpus juncoides Rocxb.): 10
herbicidal effect index, Echinochloa crus-galli (Echinochloa crus-galli [3]): 7
herbicidal effect index, Amaranthus retroflexus (A. retroflexus [5]): 10
herbicidal effect index, Abutilon theophrasti (Indian millet [6]): 10

Cc1ccc(-n2c(=O)c(C(=O)C3=C(O)CCCC3=O)nn(C)c2=O)nc1 [I-182]
herbicidal effect index, Amaranthus retroflexus (A. retroflexus [1]): 9
herbicidal effect index, Abutilon theophrasti (Indian millet [2]): 9
Herbicidal effects index number, Monochoria vaginalis (Monochoria vaginalis): 8
herbicidal effect index, S. juncoides Rocxb. (Scirpus juncoides Rocxb.): 9
herbicidal effect index, Echinochloa crus-galli (Echinochloa crus-galli [3]): 8
herbicidal effect index, Echinochloa crus-galli (Echinochloa crus-galli [4]): 7
herbicidal effect index, Amaranthus retroflexus (A. retroflexus [5]): 10
herbicidal effect index, Abutilon theophrasti (Indian millet [6]): 10

Cn1nc(C(=O)C2=C(O)CCCC2=O)c(=O)n(N2CCSCC2)c1=O [I-203]
herbicidal effect index, Amaranthus retroflexus (A. retroflexus [1]): 10
herbicidal effect index, Abutilon theophrasti (Indian millet [2]): 9
Herbicidal effects index number, Monochoria vaginalis (Monochoria vaginalis): 10
Herbicidal effects index number, Echinochloa oryzicola (Echinochloa oryzicola): 10
herbicidal effect index, S. juncoides Rocxb. (Scirpus juncoides Rocxb.): 10
herbicidal effect index, Echinochloa crus-galli (Echinochloa crus-galli [3]): 6
herbicidal effect index, Echinochloa crus-galli (Echinochloa crus-galli [4]): 9
herbicidal effect index, Amaranthus retroflexus (A. retroflexus [5]): 7

Cc1ccc(-n2c(=O)c(C(=O)C3=C(O)CCCC3=O)nn(C)c2=S)nc1 [I-291]
herbicidal effect index, Amaranthus retroflexus (A. retroflexus [1]): 10
herbicidal effect index, Abutilon theophrasti (Indian millet [2]): 9
Herbicidal effects index number, Monochoria vaginalis (Monochoria vaginalis): 10
herbicidal effect index, S. juncoides Rocxb. (Scirpus juncoides Rocxb.): 10
herbicidal effect index, Amaranthus retroflexus (A. retroflexus [5]): 8
herbicidal effect index, Abutilon theophrasti (Indian millet [6]): 10
